Tests used:
Type in all cases: in vivo, rats
[1] = tested on: enkephalinamide (DALA) analgesia; assay: Potentiation of DALA (enkephalinamide) analgesia, i.c.v., Tail Flick Test (Experiment 4); set-up: scale not given here
Description: Experiment No. 4: Potentiation of the analgesic activities of enkephalins induced by some of the compounds of the invention. […]

[2] = tested on: activity of analgesic drugs; assay: Hot-plate test, potentiation of analgesic drugs (Experiment 2)
Protocol: Experiment No. 2: Hot-plate test
The method is that described by Eddy et al. (J. Pharmac. Exp. Ther. 107, 385 (1953)).
Groups of five male rats having a weight of about 150 g, and which have not fasted, are used.
The animals are placed on a metal plate on the bottom of a transparent cylinder, which is heated to 55°±1° C. by an azeotropic boiling mixture (acetone-ethyl formate 1:1).
The reaction time is defined as the interval which passes between the moment at which the animal is placed on the hot-plate and the moment at which it either licks its feet or tries to jump out of the cylinder. The control reaction time is measured 10 and 5 minutes before administration of the drugs and 10, 20, 30, 45, 60 and 90 minutes afterwards. The animals are left on the plate for a maximum period of 30 seconds.
The response to the administration of the product is considered positive if at least a doubling of the normal reaction time is seen. The results obtained are given in Tables 2a and 2b which record the groups treated, the doses administered and the stay times on the plate expressed as the number of positive responses over the number treated.

[3] = tested on: endogenous opiates analgesia; assay: Analgesic activity of endogenous opiates released by transcutaneous shock, Tail Flick Test (Experiment 3)
Protocol: Experiment No. 3: Influence of several of the compounds of the invention on the analgesic activities of endogenous opiates released by transcutaneous shock in rats and measured by the Tail Flick Test
The method is that described by Lewis et al. J. Neurosc. 1, 358 […]. Male rats which have not fasted and have a weight of about 200 g are used.
The animals are stressed by the application of a 60 Hz-2.5 mA current to the front leg in pulses of a duration of 1 second every 5 seconds for 20 minutes.
This stress regime induces the release of endogenous opiates.

[4] = compound 1 mg/kg iv + stress, 5'
[5] = compound 1 mg/kg iv + stress, 10'
[6] = compound 1 mg/kg iv + stress, 15'
[7] = compound 3 mg/kg iv + stress, 5'
[8] = compound 3 mg/kg iv + stress, 10'
[9] = compound 3 mg/kg iv + stress, 15'

For `CCCCN(CCCC)C(=O)CCC(NC(=O)c1ccc(Cl)c(Cl)c1)C(=O)O` [Compound D-2], the “analgesic activity, Tail Flick” value ([1]; DALA 10 + compound 0.003 μg/kg ICV, 10') was 34.9, the “analgesic activity, Tail Flick” value ([1]; DALA 10 + compound 0.003 μg/kg ICV, 20') was 54.0 and the “analgesic activity, Tail Flick” value ([1]; DALA 10 + compound 0.003 μg/kg ICV, 30') was 45.5. The “analgesic activity, Tail Flick” value ([1]; DALA 10 + compound 0.003 μg/kg ICV, 45') was 27.5, the “analgesic activity, Tail Flick” value ([1]; DALA 10 + compound 0.003 μg/kg ICV, 60') was 23.5 and the “analgesic activity, Tail Flick” value ([1]; DALA 10 + compound 0.003 μg/kg ICV, 90') was 14.9. For the same compound, the “MEAN analgesic activity, Tail Flick” value ([1]; DALA 10 + compound 0.003 μg/kg ICV) was 33.4, the “analgesic activity, Tail Flick” value ([1]; DALA 10 + compound 0.01 μg/kg ICV, 10') was 38.2 and the “analgesic activity, Tail Flick” value ([1]; DALA 10 + compound 0.01 μg/kg ICV, 20') was 53.7. The “analgesic activity, Tail Flick” value ([1]; DALA 10 + compound 0.01 μg/kg ICV, 30') was 52.6, the “analgesic activity, Tail Flick” value ([1]; DALA 10 + compound 0.01 μg/kg ICV, 45') was 38.5 and the “analgesic activity, Tail Flick” value ([1]; DALA 10 + compound 0.01 μg/kg ICV, 60') was 33.7. The “analgesic activity, Tail Flick” value ([1]; DALA 10 + compound 0.01 μg/kg ICV, 90') was 26.3, the “MEAN analgesic activity, Tail Flick” value ([1]; DALA 10 + compound 0.01 μg/kg ICV) was 40.5 and the TOTAL positives ([2]; oxyphenylbutazone 50 + compound 3 mg/kg i.p.) was 12 x/30. The “positive responses over number treated” value ([2]; oxyphenylbutazone 50 + compound 3 mg/kg i.p., 10') was 2/5, the “positive responses over number treated” value ([2]; oxyphenylbutazone 50 + compound 3 mg/kg i.p., 20') was 1/5 and the “positive responses over number treated” value ([2]; oxyphenylbutazone 50 + compound 3 mg/kg i.p., 30') was 2/5. The “positive responses over number treated” value ([2]; oxyphenylbutazone 50 + compound 3 mg/kg i.p., 45') was 3/5, the “positive responses over number treated” value ([2]; oxyphenylbutazone 50 + compound 3 mg/kg i.p., 60') was 3/5 and the “positive responses over number treated” value ([2]; oxyphenylbutazone 50 + compound 3 mg/kg i.p., 90') was 1/5. The TOTAL positives ([2]; oxyphenylbutazone 50 + compound 10 mg/kg i.p.) was 12 x/30, the “positive responses over number treated” value ([2]; oxyphenylbutazone 50 + compound 10 mg/kg i.p., 10') was 1/5 and the “positive responses over number treated” value ([2]; oxyphenylbutazone 50 + compound 10 mg/kg i.p., 20') was 1/5. For the same compound, the “positive responses over number treated” value ([2]; oxyphenylbutazone 50 + compound 10 mg/kg i.p., 30') was 3/5, the “positive responses over number treated” value ([2]; oxyphenylbutazone 50 + compound 10 mg/kg i.p., 45') was 3/5 and the “positive responses over number treated” value ([2]; oxyphenylbutazone 50 + compound 10 mg/kg i.p., 60') was 2/5. The “positive responses over number treated” value ([2]; oxyphenylbutazone 50 + compound 10 mg/kg i.p., 90') was 2/5, the TOTAL positives ([2]; oxyphenylbutazone 50 + compound 30 mg/kg i.p.) was 23 x/30 and the “positive responses over number treated” value ([2]; oxyphenylbutazone 50 + compound 30 mg/kg i.p., 10') was 3/5. For the same compound, the “positive responses over number treated” value ([2]; oxyphenylbutazone 50 + compound 30 mg/kg i.p., 20') was 4/5, the “positive responses over number treated” value ([2]; oxyphenylbutazone 50 + compound 30 mg/kg i.p., 30') was 4/5 and the “positive responses over number treated” value ([2]; oxyphenylbutazone 50 + compound 30 mg/kg i.p., 45') was 4/5. For the same compound, the “positive responses over number treated” value ([2]; oxyphenylbutazone 50 + compound 30 mg/kg i.p., 60') was 4/5, the “positive responses over number treated” value ([2]; oxyphenylbutazone 50 + compound 30 mg/kg i.p., 90') was 4/5 and the “average latency, Tail Flick” value [3, 4] was 9.2 ± 0.53 s. For the same compound, the “average latency, Tail Flick” value [3, 5] was 7.0 ± 0.86 s, the “average latency, Tail Flick” value [3, 6] was 5.28 ± 0.64 s and the “average latency, Tail Flick” value [3, 7] was 9.6 ± 0.46 s. The “average latency, Tail Flick” value [3, 8] was 7.24 ± 0.58 s and the “average latency, Tail Flick” value [3, 9] was 5.08 ± 0.52 s.

For `CCCN(CCC)C(=O)C(CCC(=O)O)NC(=O)c1ccc(C(C)C)cc1` (centres unmarked) [Compound C-36], the TOTAL positives ([2]; ASA 100 + compound 10 mg/kg i.p.) was 10 X/30, the “positive responses over number treated” value ([2]; ASA 100 + compound 10 mg/kg i.p., 10') was 1/5 and the “positive responses over number treated” value ([2]; ASA 100 + compound 10 mg/kg i.p., 20') was 2/5. For the same compound, the “positive responses over number treated” value ([2]; ASA 100 + compound 10 mg/kg i.p., 30') was 3/5, the “positive responses over number treated” value ([2]; ASA 100 + compound 10 mg/kg i.p., 45') was 2/5 and the “positive responses over number treated” value ([2]; ASA 100 + compound 10 mg/kg i.p., 60') was 1/5. For the same compound, the “positive responses over number treated” value ([2]; ASA 100 + compound 10 mg/kg i.p., 90') was 1/5, the TOTAL positives ([2]; ASA 100 + compound 30 mg/kg i.p.) was 14 X/30 and the “positive responses over number treated” value ([2]; ASA 100 + compound 30 mg/kg i.p., 10') was 1/5. For the same compound, the “positive responses over number treated” value ([2]; ASA 100 + compound 30 mg/kg i.p., 20') was 2/5, the “positive responses over number treated” value ([2]; ASA 100 + compound 30 mg/kg i.p., 30') was 2/5 and the “positive responses over number treated” value ([2]; ASA 100 + compound 30 mg/kg i.p., 45') was 3/5. For the same compound, the “positive responses over number treated” value ([2]; ASA 100 + compound 30 mg/kg i.p., 60') was 3/5, the “positive responses over number treated” value ([2]; ASA 100 + compound 30 mg/kg i.p., 90') was 3/5 and the TOTAL positives ([2]; ASA 100 + compound 100 mg/kg i.p.) was 20 X/30. The “positive responses over number treated” value ([2]; ASA 100 + compound 100 mg/kg i.p., 10') was 3/5, the “positive responses over number treated” value ([2]; ASA 100 + compound 100 mg/kg i.p., 20') was 3/5 and the “positive responses over number treated” value ([2]; ASA 100 + compound 100 mg/kg i.p., 30') was 4/5. For the same compound, the “positive responses over number treated” value ([2]; ASA 100 + compound 100 mg/kg i.p., 45') was 4/5, the “positive responses over number treated” value ([2]; ASA 100 + compound 100 mg/kg i.p., 60') was 4/5 and the “positive responses over number treated” value ([2]; ASA 100 + compound 100 mg/kg i.p., 90') was 2/5. The TOTAL positives ([2]; methadone 1 + compound 0.3 mg/kg i.p.) was 2 X/30, the “positive responses over number treated” value ([2]; methadone 1 + compound 0.3 mg/kg i.p., 10') was 2/5 and the “positive responses over number treated” value ([2]; methadone 1 + compound 0.3 mg/kg i.p., 20') was 2/5. The “positive responses over number treated” value ([2]; methadone 1 + compound 0.3 mg/kg i.p., 30') was 3/5, the “positive responses over number treated” value ([2]; methadone 1 + compound 0.3 mg/kg i.p., 45') was 3/5 and the “positive responses over number treated” value ([2]; methadone 1 + compound 0.3 mg/kg i.p., 60') was 1/5. For the same compound, the “positive responses over number treated” value ([2]; methadone 1 + compound 0.3 mg/kg i.p., 90') was 1/5, the TOTAL positives ([2]; methadone 1 + compound 1 mg/kg i.p.) was 19 X/30 and the “positive responses over number treated” value ([2]; methadone 1 + compound 1 mg/kg i.p., 10') was 3/5. The “positive responses over number treated” value ([2]; methadone 1 + compound 1 mg/kg i.p., 20') was 5/5, the “positive responses over number treated” value ([2]; methadone 1 + compound 1 mg/kg i.p., 30') was 4/5 and the “positive responses over number treated” value ([2]; methadone 1 + compound 1 mg/kg i.p., 45') was 3/5. For the same compound, the “positive responses over number treated” value ([2]; methadone 1 + compound 1 mg/kg i.p., 60') was 3/5, the “positive responses over number treated” value ([2]; methadone 1 + compound 1 mg/kg i.p., 90') was 1/5 and the TOTAL positives ([2]; methadone 1 + compound 3 mg/kg i.p.) was 24 X/30. For the same compound, the “positive responses over number treated” value ([2]; methadone 1 + compound 3 mg/kg i.p., 10') was 5/5, the “positive responses over number treated” value ([2]; methadone 1 + compound 3 mg/kg i.p., 20') was 5/5 and the “positive responses over number treated” value ([2]; methadone 1 + compound 3 mg/kg i.p., 30') was 3/5. The “positive responses over number treated” value ([2]; methadone 1 + compound 3 mg/kg i.p., 45') was 4/5, the “positive responses over number treated” value ([2]; methadone 1 + compound 3 mg/kg i.p., 60') was 5/5 and the “positive responses over number treated” value ([2]; methadone 1 + compound 3 mg/kg i.p., 90') was 2/5. The “average latency, Tail Flick” value [3, 4] was 6.9 ± 0.74 s, the “average latency, Tail Flick” value [3, 5] was 6.5 ± 0.42 s and the “average latency, Tail Flick” value [3, 6] was 4.66 ± 0.55 s. The “average latency, Tail Flick” value [3, 7] was 9.22 ± 0.67 s, the “average latency, Tail Flick” value [3, 8] was 8.1 ± 0.43 s and the “average latency, Tail Flick” value [3, 9] was 9.28 ± 0.64 s.
